The source of these data is patent EP0355842A2, “External preparation” (Sansho Seiyaku Co., Ltd., priority 1988, dated 1990).

In this data set the test system is B16 cells. As to the kind of experiment: Melanin-production test of B16 cells. The class given is cell-based, mouse. To be noted: evaluated concentration 80 µM; culture for 5 days. The procedure: Experimental Example: Melanin-production test of B16 cells
B16 cells (4 x 10⁴) derived from mouse melanoma are suspended in Eagle MBM medium containing bovine fetal serum (10 ml) for culture in the presence of 5% CO₂ at 37°C in 25-cm³ Rou bottle. At day 0 and 3, the medium is replaced for a medium containing each of the above substances of 80 µM/l or 60 µM/l to continue the culture for 5 days. The cells washed with phosphate buffer (pH 7.2) containing 0.8 W/V NaCl, were separated using the solution containing trypsin and EDTA, and filtered to recover the cells. The cells recovered on the filter were measured of their reflection luminous intensity (degree of darkness) at 500 nm with a densitometer.
Take `CC=CCCCCC(=O)O` [6-Octenoic acid]: the Melanin levels amounted to 4.7 µg/10^6 cells and the Number of cells was 2.6 × 10^4 cells.
For the molecule `CCCCCC/C=C\CCCCCCCC(=O)OCC(O)CO` (stereo not drawn) [1-Monopalmitolein], the Melanin levels came out at 0.1 µg/10^6 cells and the Number of cells is on record as 2.2 × 10^4 cells.
The like results for `CCC=CCCCCCCCC(=O)O` [9-Dodecenoic acid] were, in that order, 4.6 µg/10^6 cells and 2.7 × 10^4 cells.
Take `CCC=CCCCCCCCCC(=O)O` [10-Tridecenoic acid]: the Melanin levels is 3.0 µg/10^6 cells and the Number of cells is recorded as 2.7 × 10^4 cells.
The like results for `CCCC=CCCCCCC(=O)OC(CO)CO` [2-Monoundecenoin] were, in that order, 3.9 µg/10^6 cells and 2.5 × 10^4 cells.
Consider `CCCCCCC=CCCCCCCCCC(=O)OCC(COC(=O)CCCCCCCCC=CCCCCCC)OC(=O)CCCCCCCCC=CCCCCCC` (stereo not drawn) [Triheptadecenoin], for which the Melanin levels was 1.0 µg/10^6 cells and the Number of cells is 2.7 × 10^4 cells.
The corresponding values for `CCCCCCC=CCCCCCCCCC(=O)OC(CO)CO` [2-Monoheptadecenoin] are 0.3 µg/10^6 cells and 2.2 × 10^4 cells.
In the case of `CCCCCCC=CCCCCCCCCC(=O)OCC(O)CO` (stereo not drawn) [1-Monoheptadecenoin], the Melanin levels is 0.4 µg/10^6 cells and the Number of cells was 2.0 × 10^4 cells.
The corresponding values for `CCC=CCC(=O)OC(CO)CO` [2-Monohexenoin] are 4.3 µg/10^6 cells and 2.4 × 10^4 cells.
The like results for `CCCCCC/C=C\CCCCCCCC(=O)OC[C@H](COP(=O)([O-])OCC[N+](C)(C)C)OC(=O)CCCCCCC/C=C\CCCCCC` [L-α-Lecithin dipalmitoleyl] were, in that order, 3.9 µg/10^6 cells and 2.8 × 10^4 cells.
Consider `CCCCCC/C=C\CCCCCCCC(=O)OCC(COC(=O)CCCCCCC/C=C\CCCCCC)OC(=O)CCCCCCC/C=C\CCCCCC` [Tripalmitolein], for which the Melanin levels is reported as 0.1 µg/10^6 cells and the Number of cells is on record as 2.1 × 10^4 cells.
The corresponding values for `CCCCCCC=CCCCCCCCC(=O)O` [9-Hexadecenoic acid] are 0.1 µg/10^6 cells and 3.2 × 10^4 cells.
The like results for `CCCCC=CCC=CCCCCC(=O)O` [6,9-Tetradecadienoic acid] were, in that order, 0.3 µg/10^6 cells and 2.5 × 10^4 cells.
The like results for `CC=CCCCCC(=O)OCC(O)CO` (stereo not drawn) [1-Monooctenoin] were, in that order, 4.5 µg/10^6 cells and 2.6 × 10^4 cells.
As for `CCC=CCCCCCCCC(=O)OCC(O)CO` (stereo not drawn) [1-Monododecenoin], the Melanin levels was determined as 4.2 µg/10^6 cells and the Number of cells is recorded as 2.7 × 10^4 cells.
Consider `CCC=CCC=CCCCCCC(=O)O` [7,10-Tridecadienoic acid], for which the Melanin levels turned out to be 3.2 µg/10^6 cells and the Number of cells is reported as 2.4 × 10^4 cells.
Regarding `CCCCC=CCCCCCCCCC(=O)OCC(O)COC(=O)CCCCCCCCC=CCCCC` (stereo not drawn) [1,3-Dipentadecenoin], the Melanin levels came to 0.2 µg/10^6 cells and the Number of cells was 2.1 × 10^4 cells.
As to `CCC=CCCCCCCCC(=O)OCC(CO)OC(=O)CCCCCCCC=CCC` (stereo not drawn) [1,2-Didodecenoin], the Melanin levels worked out at 4.0 µg/10^6 cells and the Number of cells is on record as 2.4 × 10^4 cells.
`CCCC=CCC=CCC=CCCCCC(=O)O` [6,9,12-Hexadecatrienoic acid]: the Melanin levels came out at 0.1 µg/10^6 cells and the Number of cells is 2.5 × 10^4 cells.
In the case of `CCCCC=CCCCCCCCC(=O)O` [9-Tetradecenoic acid], the Melanin levels was determined as 0.3 µg/10^6 cells and the Number of cells is recorded as 2.5 × 10^4 cells.
`CCCCCCC=CCCCCCCCCC(=O)OC` [10-Heptadecenoic acid methyl]: the Melanin levels amounted to 2.0 µg/10^6 cells and the Number of cells was 2.5 × 10^4 cells.
Consider `CCCC=CCCCCCC(=O)O` [7-Undecenoic acid], for which the Melanin levels is listed as 4.7 µg/10^6 cells and the Number of cells is listed as 2.7 × 10^4 cells.
In the case of `CCCCCC/C=C\CCCCCCCC(=O)OC(CO)CO` [2-Monopalmitolein], the Melanin levels was found to be 0.1 µg/10^6 cells and the Number of cells is given as 2.1 × 10^4 cells.
On to 2-Monopentadecenoin, for which the Melanin levels was 0.1 µg/10^6 cells and the Number of cells was 2.2 × 10^4 cells.
On to `CCCC/C=C\CCCCCCCC(=O)OCC(O)COC(=O)CCCCCCC/C=C\CCCC` [1,3-Dimyristoelin], for which the Melanin levels is 1.2 µg/10^6 cells and the Number of cells is given as 2.0 × 10^4 cells.
The like results for `CCCCCCC=CCCCCCCCCC(=O)OCC(O)COC(=O)CCCCCCCCC=CCCCCCC` (stereo not drawn) [1,3-Heptadecenoin] were, in that order, 1.2 µg/10^6 cells and 2.1 × 10^4 cells.
As for `CCCCCC/C=C\CCCCCCCC(=O)OC` [Palmitoleic acid methyl], the Melanin levels amounted to 0.1 µg/10^6 cells and the Number of cells is 2.6 × 10^4 cells.
Consider `CCCCC=CCCCCCCCCC(=O)OCC(CO)OC(=O)CCCCCCCCC=CCCCC` (stereo not drawn) [1,2-Dipentadecenoin], for which the Melanin levels came out at 0.1 µg/10^6 cells and the Number of cells is given as 2.5 × 10^4 cells.
Consider `CCCCCC/C=C/CCCCCCCC(=O)OC[C@H](COP(=O)([O-])OCC[N+](C)(C)C)OC(=O)CCCCCCC/C=C/CCCCCC` [L-α-Lecithin dipalmitoelaidoyl], for which the Melanin levels was determined as 3.8 µg/10^6 cells and the Number of cells is 2.7 × 10^4 cells.
For `CCCC/C=C\CCCCCCCC(=O)OC` [Myristoleic acid methyl], the Melanin levels is given as 1.2 µg/10^6 cells and the Number of cells is 2.6 × 10^4 cells.
With `CCCCCCC=CCCCCCCCCC(=O)O` [10-Heptadecenoic acid], the Melanin levels is recorded as 0.5 µg/10^6 cells and the Number of cells is listed as 2.6 × 10^4 cells.
In the case of `CCC=CCC=CCCCCC(=O)O` [6,9-Dodecadienoic acid], the Melanin levels is 4.4 µg/10^6 cells and the Number of cells is 2.5 × 10^4 cells.
The like results for `CCCCC=CCCCCCCCCC(=O)OCC(COC(=O)CCCCCCCCC=CCCCC)OC(=O)CCCCCCCCC=CCCCC` (stereo not drawn) [Tripentadecenoin] were, in that order, 0.2 µg/10^6 cells and 2.2 × 10^4 cells.
On to `CCCC/C=C\CCCCCCCC(=O)OCC(CO)OC(=O)CCCCCCC/C=C\CCCC` (stereo not drawn) [1,2-Dimyristolein], for which the Melanin levels was determined as 2.8 µg/10^6 cells and the Number of cells was 2.5 × 10^4 cells.
Turning to `CCCC/C=C\CCCCCCCC(=O)OCC(O)CO` (stereo not drawn) [1-Monomyristolein], the Melanin levels came to 2.2 µg/10^6 cells and the Number of cells is reported as 2.5 × 10^4 cells.
The like results for `CCCCC=CCCCCCCCCC(=O)OC` [10-Pentadecenoic acid methyl] were, in that order, 0.1 µg/10^6 cells and 2.7 × 10^4 cells.
On to `CCCCC=CCCCCCCCCC(=O)OCC(O)CO` (stereo not drawn) [1-Monopentadecenoin], for which the Melanin levels is listed as 0.1 µg/10^6 cells and the Number of cells is reported as 2.4 × 10^4 cells.
For `CCCCC=CCCCCCCCCC(=O)O` [10-Pentadecenoic acid], the Melanin levels amounted to 0.1 µg/10^6 cells and the Number of cells is given as 2.6 × 10^4 cells.
Take `CCCC/C=C\CCCCCCCC(=O)OCC(COC(=O)CCCCCCC/C=C\CCCC)OC(=O)CCCCCCC/C=C\CCCC` [Trimyristolein]: the Melanin levels was found to be 1.5 µg/10^6 cells and the Number of cells is reported as 2.5 × 10^4 cells.
The like results for `CCCCC=CCC=CCCCCCC(=O)O` [7,10-Pentadecadienoic acid] were, in that order, 0.1 µg/10^6 cells and 2.6 × 10^4 cells.
Regarding `CCCCCCC=CCC=CCCCCC(=O)O` [6,9-Hexadecadienoic acid], the Melanin levels stood at 0.1 µg/10^6 cells and the Number of cells was 2.4 × 10^4 cells.
The like results for `CCCC=CCCCCC(=O)O` [6-Decenoic acid] were, in that order, 4.8 µg/10^6 cells and 2.6 × 10^4 cells.
The corresponding values for `CCCCCC/C=C\CCCCCCCC(=O)OCC(CO)OC(=O)CCCCCCC/C=C\CCCCCC` (stereo not drawn) [1,2-Dipalmitolein] are 0.1 µg/10^6 cells and 2.2 × 10^4 cells.
The like results for `CCCCCC/C=C\CCCCCCCC(=O)OCC(O)COC(=O)CCCCCCC/C=C\CCCCCC` [1,3-Dipalmitolein] were, in that order, 0.1 µg/10^6 cells and 2.1 × 10^4 cells.
Consider `CC=CC(=O)O` [2-Butenoic acid], for which the Melanin levels was found to be 4.6 µg/10^6 cells and the Number of cells is given as 2.7 × 10^4 cells.
